Assay results reported in patent publication US12594349B2, “Compositions and methods for the targeting of PCSK9” (Scribe Therapeutics Inc., priority 2022, dated 2026).
Where two headings read alike, the source gives them in different places.

B1: dCasX491: catalytically-dead CasX variant, SEQ ID NO: 4 (protein)
chain: QEIKRINKIRRRLVKDSNTKKAGKTGPMKTLLVRVMTPDLRERLENLRKKPENIPQPISNTSRANLNKLLTDYTEMKKAILHVYWEEFQKDPVGLMSRVAQPASKKIDQNKLKPEMDEKGNLTTAGFACSQCGQPLFVYKLEQVSEKGKAYTNYFGRCNVAEHEKLILLAQLKPEKDSDEAVTYSLGKFGQRALDFYSIHVTKESTHPVKPLAQIAGNRYASGPVGKALSDACMGTIASFLSKYQDIIIEHQKVVKGNQKRLESLRELAGKENLEYPSVTLPPQPHTKEGVDAYNEVIARVRMWVNLNLWQKLKLSRDDAKPLLRLKGFPSFPLVERQANEVDWWDMVCNVKKLINEKKEDGKVFWQNLAGYKRQEALRPYLSSEEDRKKGKKFARYQLGDLLLHLEKKHGEDWGKVYDEAWERIDKKVEGLSKHIKLEEERRSEDAQSKAALTDWLRAKASFVIEGLKEADKDEFCRCELKLQKWYGDLRGKPFAIEAENSILDISGFSKQYNCAFIWQKDGVKKLNLYLIINYFKGGKLRFKKIKPEAFEANRFYTVINKKSGEIVPMEVNFNFDDPNLIILPLAFGKRQGREFIWNDLLSLETGSLKLANGRVIEKTLYNRRTRQDEPALFVALTFERREVLDSSNIKPMNLIGVARGENIPAVIALTDPEGCPLSRFKDSLGNPTHILRIGESYKEKQRTIQAKKEVEQRRAGGYSRKYASKAKNLADDMVRNTARDLLYYAVTQDAMLIFANLSRGFGRQGKRTFMAERQYTRMEDWLTAKLAYEGLSKTYLSKTLAQYTSKTCSNCGFTITSADYDRVLEKLKKTATGWMTTINGKELKVEGQITYYNRYKRQNVVKDLSVELDRLSEESVNNDISSWTKGRSGEALSLLKKRFSHRPVQEKFVCLNCGFETHAAEQAALNIARSWLFLRSQEYKKYQTNKTTGNTDKRAFVETWQSFYRKKLKEVWKPAV
B2: DOMAIN_26749: repressor domain derived from the king cobra, Ophiophagus hannah; SEQ ID NO: 135 (protein)
chain: STPVTFEDVVVYFTAAEWVHLTNWQRDFYQAVMMETYELVASVAGDGVPMAEDEEGGVERPVWQYIPRGKRRRKTPQPRAD
modifications: Ophiophagus hannah
B3: DOMAIN_29304: one of the top nine most effective repressor domains (protein, listed as Peromyscus maniculatus)
chain: VTYNDVHVDITQEEWALMDPSQRNLYKDVMVETYMNLTAIGYNWENLEVEEPCQNPLKHGRHERPHTGEKPYEYNQCGKAFAQP

Experiments:
[1] = test system: human PCSK9 locus; test: Secreted PCSK9 by ELISA in Huh7 cells transfected with mRNA and gRNA; type: cell-based; conditions: for Secreted PCSK9 / Percent reduction in PCSK9 secretion / Average percent reduction in PCSK9 secretion: Huh7 cells; for Secreted PCSK9: 6 days post-transfection, normalized to total cell count; for Percent reduction in PCSK9 secretion / Average percent reduction in PCSK9 secretion: LTRP5-ADD-ZIM3 mRNA; for Percent reduction in PCSK9 secretion: day 6, relative to non-targeting gRNA control; for Average percent reduction in PCSK9 secretion: day 6, averaged from the two doses
Protocol: To assess PCSK9 secretion, seeded Huh7 cells were transfected with mRNA encoding a catalytically-active CasX 676, dXR1, or LTRP5-ADD-ZIM3 and a gRNA with scaffold 316 and spacer targeting either the B2M or PCSK9 locus. Media supernatant was harvested at 6, 18, 36, and 87 days post-transfection to assess level of PCSK9 secretion by ELISA. Levels of PCSK9 secretion were normalized to total cell count. As an additional control, PCSK9 secretion was also measured in the media supernatant harvested from wells containing untreated, naïve cells.
The following three human hepatocyte cancer cell lines were used in this experiment: HepG2 cells, Hep3B cells, and Huh7 cells. ˜15,000 cells of each cell line were seeded per well; the next day, seeded cells were transfected with mRNA encoding a catalytically-active CasX 676, dXR1, or LTRP5-ADD-ZIM3 and a gRNA with scaffold 316 and spacer targeting either the B2M or PCSK9 locus (see Table 23 for specific spacers and sequences). Media supernatant was harvested at 4 days post-transfection to assess level of PCSK9 secretion by ELISA, and levels of PCSK9 secretion were normalized to total cell count and illustrated in FIGS. 11A-11C. Culturing of treated Huh7 cells continued, and media supernatant was harvested at 14 and 27 days post-transfection for measuring PCSK9 secretion by ELISA. As an additional experimental control, PCSK9 secretion was also measured in the media supernatant harvested from wells containing untreated, naïve cells.
To assess PCSK9 secretion, seeded Huh7 cells were co-transfected with mRNA encoding for LTRP5-ADD-ZIM3 and a gRNA with scaffold 316 and spacer targeting the PCSK9 locus using Lipofectamine™ 3000. Two doses of total RNA input at a 2:1 mass ratio of mRNA to gRNA were used for screening: 50 ng mRNA:25 ng gRNA and 25 ng mRNA:12.5 ng gRNA. Media supernatant was harvested at 6 days post-transfection to assess level of PCSK9 secretion by ELISA (Table 74). Levels of PCSK9 secretion were normalized to total cell count. As an additional control, PCSK9 secretion was also measured in the media supernatant harvested from cells transfected with mRNA encoding for mScarlet.

[2] = test system: HBEGF; type: cell-based, human; conditions: for log 2(fold change) of abundance before and after selection: HEK293T, dCasX491 fusion, scaffold 174 spacer 34.28, 2 ng/mL diphtheria toxin for 48 hours
[3] = test system: B2M locus; type: cell-based; conditions: for % HLA-negative cells (mean): HEK293T cells, gRNA with B2M-targeting spacer 7.37; for B2M repression compared with LTRP5-ZIM3: HEK293T, LTRP5 constructs without ADD domain, scaffold 316 spacer 7.165, days 6/7 to 26/27
[4] = LTRP5-ADD-ZIM3 mRNA + gRNA scaffold 316, 25 ng mRNA:12.5 ng gRNA
[5] = LTRP5-ADD-ZIM3 mRNA + gRNA scaffold 316, 50 ng mRNA:25 ng gRNA

| Molecule | Secreted PCSK9 [1, 4] | Secreted PCSK9 [1, 5] | Percent reduction in PCSK9 secretion ([1]; 25 ng mRNA:12.5 ng gRNA) | Percent reduction in PCSK9 secretion ([1]; 50 ng mRNA:25 ng gRNA) | Average percent reduction in PCSK9 secretion [1] | also measured |
| --- | --- | --- | --- | --- | --- | --- |
| TG-06-158 (guide GGAGCAGGGCGCGUGAAGGG; listed as RNA, chemistry not given here) | 31.72 ng/mL | 9.39 ng/mL | 55.48% | 88.59% | 72.03% |  |
| TG-06-159 (guide GCGCGCCCCUUCACGCGCCC; listed as RNA, chemistry not given here) | 80.84 ng/mL | 53.15 ng/mL | 13.47% | 35.4% | 10.97% |  |
| TG-06-160 (guide CGCGCCCUGCUCCUGAACUU; listed as RNA, chemistry not given here) | 48.67 ng/mL | 20.63 ng/mL | 31.69% | 74.93% | 53.31% |  |
| TG-06-161 (guide GCUCCUGCACAGUCCUCCCC; listed as RNA, chemistry not given here) | 53.16 ng/mL | 29.55 ng/mL | 25.38% | 64.08% | 44.73% |  |
| TG-06-168 (guide GUGGGAAGGUUCGCGGGGUU; listed as RNA, chemistry not given here) | 50.96 ng/mL | 19.1 ng/mL | 28.47% | 76.78% | 52.62% |  |
| TG-06-169 (guide CGGGGUUGGGAGACCCGGAG; listed as RNA, chemistry not given here) | 62.55 ng/mL | 66.39 ng/mL | 12.2% | 19.3% | 15.75% |  |
| TG-06-170 (guide UCGGCCUCCGGGUCUCCCAA; listed as RNA, chemistry not given here) | 72.96 ng/mL | 64.19 ng/mL | 2.41% | 21.98% | 9.79% |  |
| TG-06-171 (guide CAGUACGUUCCAGGCAUUCA; listed as RNA, chemistry not given here) | 55.95 ng/mL | 52.41 ng/mL | 21.46% | 36.3% | 28.88% |  |
| TG-06-172 (guide GCUGAAACAGAUGGAAUACU; listed as RNA, chemistry not given here) | 59.31 ng/mL | 44.44 ng/mL | 16.75% | 45.99% | 31.37% |  |
| TG-06-342 (guide AAUUACAGGCAACAGGAAGG; listed as RNA, chemistry not given here) |  |  | 5.6% |  |  |  |
| TG-06-344 (guide CAGUUUCUGCCUCGCCGCGG; listed as RNA, chemistry not given here) |  |  |  | 0.01% |  |  |
| TG-06-352 (guide UCCCUCACCAAUUACCCCUC; listed as RNA, chemistry not given here) |  |  |  |  |  | secreted PCSK9 repression compared with spacer 6.1 paired with CasX 676 ([1]; Huh7, LTRP5-ADD-ZIM3 mRNA + gRNA scaffold 316, through day 36): effective repression |
| TG-06-1046 (guide UCUCUUACAUGGGGGGAAAC; listed as RNA, chemistry not given here) |  |  |  | 4.1% |  |  |
| ZIM3: human ZIM3 KRAB domain, SEQ ID NO: 128 [reference compound] |  |  |  |  |  | log 2(fold change) of abundance before and after selection [2]: 1.7787 |
| standard ZNF10: human ZNF10 KRAB domain, SEQ ID NO: 129 [reference compound] |  |  |  |  |  | log 2(fold change) of abundance before and after selection [2]: 1.3637 |
| B1 |  |  |  |  |  | % HLA-negative cells (mean) ([3]; 50 days post-transfection): 0.49%; % HLA-negative cells (mean) ([3]; 73 days post-transfection): 0.83% |
| B2 |  |  |  |  |  | B2M repression compared with LTRP5-ZIM3 [3]: most effective; log 2(fold change) of abundance before and after selection [2]: highest log 2 (fold change) |
| B3 |  |  |  |  |  | B2M repression compared with LTRP5-ZIM3 [3]: most effective; Log2 (fold change) ([2]; fold change in abundance of each domain in the library before and after diphtheria toxin selection, dXR repression of the HBEGF gene, criteria p-value <0.01 and log2(fold change) >2): 4.0496 |
